# Assay results reported in PubChem BioAssay (NCI).
#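 How tested: cells in 96-well plates exposed to compound for 48 hours at five concentrations. TGI: concentration producing complete growth inhibition.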
# How the values were obtained:
# Experiment in all cases: inhibition of tumour cell growth, NCI panel, 48 h
# [1] = test system: OVCAR-3 ovarian
# [2] = test system: TK-10 renal
# [3] = test system: MDA-MB-231 breast
# [4] = test system: NCI/ADR-RES ovarian
# [5] = test system: ACHN renal
# [6] = test system: CCRF-CEM leukemia
# [7] = test system: 786-0 renal
# [8] = test system: OVCAR-4 ovarian
# [9] = test system: MDA-MB-435
# [10] = test system: LOX IMVI melanoma
# [11] = test system: SN12C renal
# [12] = test system: HOP-62 NSCLC
# [13] = test system: HCC-2998 colon
# [14] = test system: EKVX NSCLC
# [15] = test system: T-47D breast
# [16] = test system: U251 CNS
# [17] = test system: HOP-92 NSCLC
# [18] = test system: MOLT-4 leukemia
# [19] = test system: PC-3 prostate
# [20] = test system: UACC-62 melanoma
# [21] = test system: SK-MEL-5 melanoma
# [22] = test system: RXF 393 renal
# [23] = test system: OVCAR-5 ovarian
# [24] = test system: UO-31 renal
# [25] = test system: NCI-H226 lung
# [26] = test system: IGROV1 ovarian
# [27] = test system: SK-MEL-28 melanoma
# [28] = test system: HS 578T breast
# [29] = test system: SF-539 CNS
# [30] = test system: HL-60(TB) leukemia
# [31] = test system: CAKI-1 renal
# [32] = test system: HCT-15 colon
# [33] = test system: KM12 colon
# [34] = test system: SF-295 CNS
# [35] = test system: OVCAR-8 ovarian
# [36] = test system: DU-145 prostate
# [37] = test system: M14 melanoma
# [38] = test system: NCI-H522 lung
# [39] = test system: NCI-H23 lung
# [40] = test system: SW-620 colon
# [41] = test system: MALME-3M melanoma
# [42] = test system: SNB-75 CNS
# [43] = test system: RPMI-8226 leukemia
# [44] = test system: SNB-19 CNS
# [45] = test system: SR leukemia
# [46] = test system: HCT-116 colon
# [47] = test system: UACC-257 melanoma
# [48] = test system: NCI-H460 lung
# [49] = test system: MCF7 breast
# [50] = test system: A549 NSCLC
# [51] = test system: A498 renal
# [52] = test system: HT29 colon
# [53] = test system: K-562 leukemia
# [54] = test system: SK-MEL-2 melanoma
# [55] = test system: MDA-N
# [56] = test system: SF-268 CNS
# [57] = test system: COLO 205 colon
# [58] = test system: SK-OV-3 ovarian
# [59] = test system: BT-549 breast
smiles,measurement,setting,value
O=c1[nH]c(=S)[nH]n1C(=S)n1[nH]c(=S)[nH]c1=O,TGI,[1],> 100 µM
same,TGI,[2],> 100 µM
same,TGI,[3],> 100 µM
same,TGI,[4],> 100 µM
same,TGI,[5],> 100 µM
same,TGI,[6],> 100 µM
same,TGI,[7],> 100 µM
same,TGI,[8],> 100 µM
same,TGI,[9],> 100 µM
same,TGI,[10],> 100 µM
same,TGI,[11],> 100 µM
same,TGI,[12],> 100 µM
same,TGI,[13],> 100 µM
same,TGI,[14],> 100 µM
same,TGI,[15],> 100 µM
same,TGI,[16],> 100 µM
same,TGI,[17],> 100 µM
same,TGI,[18],> 100 µM
same,TGI,[19],> 100 µM
same,TGI,[20],> 100 µM
same,TGI,[21],> 100 µM
same,TGI,[22],> 100 µM
same,TGI,[23],> 100 µM
same,TGI,[24],> 100 µM
same,TGI,[25],> 100 µM
same,TGI,[26],> 100 µM
same,TGI,[27],> 100 µM
same,TGI,[28],> 100 µM
same,TGI,[29],> 100 µM
same,TGI,[30],> 100 µM
same,TGI,[31],> 100 µM
same,TGI,[32],> 100 µM
same,TGI,[33],> 100 µM
same,TGI,[34],> 100 µM
same,TGI,[35],> 100 µM
same,TGI,[36],> 100 µM
same,TGI,[37],> 100 µM
same,TGI,[38],> 100 µM
same,TGI,[39],> 100 µM
same,TGI,[40],> 100 µM
same,TGI,[41],> 100 µM
same,TGI,[42],> 100 µM
same,TGI,[43],> 100 µM
same,TGI,[44],> 100 µM
same,TGI,[45],> 100 µM
same,TGI,[46],> 100 µM
same,TGI,[47],> 100 µM
same,TGI,[48],> 100 µM
same,TGI,[49],40.6 µM
same,TGI,[50],> 100 µM
same,TGI,[51],> 100 µM
same,TGI,[52],> 100 µM
same,TGI,[53],> 100 µM
same,TGI,[54],> 100 µM
same,TGI,[55],> 100 µM
same,TGI,[56],> 100 µM
same,TGI,[57],> 100 µM
C(=NCc1ccccc1)c1ccccc1-c1ccccc1C=NCc1ccccc1,TGI,[1],> 10 µM
same,TGI,[2],> 10 µM
same,TGI,[58],> 10 µM
same,TGI,[3],> 10 µM
same,TGI,[4],> 10 µM
same,TGI,[5],> 10 µM
same,TGI,[6],> 10 µM
same,TGI,[7],> 10 µM
same,TGI,[8],> 10 µM
same,TGI,[9],> 10 µM
same,TGI,[10],> 10 µM
same,TGI,[11],> 10 µM
same,TGI,[12],> 10 µM
same,TGI,[14],> 10 µM
same,TGI,[15],> 10 µM
same,TGI,[16],> 10 µM
same,TGI,[17],> 10 µM
same,TGI,[18],> 10 µM
same,TGI,[19],> 10 µM
same,TGI,[20],> 10 µM
same,TGI,[21],> 10 µM
same,TGI,[22],> 10 µM
same,TGI,[23],> 10 µM
same,TGI,[24],> 10 µM
same,TGI,[25],> 10 µM
same,TGI,[26],> 10 µM
same,TGI,[27],> 10 µM
same,TGI,[29],> 10 µM
same,TGI,[30],5.73 µM
same,TGI,[31],> 10 µM
same,TGI,[32],> 10 µM
same,TGI,[33],> 10 µM
same,TGI,[34],> 10 µM
same,TGI,[35],> 10 µM
same,TGI,[36],> 10 µM
same,TGI,[37],> 10 µM
same,TGI,[38],> 10 µM
same,TGI,[39],> 10 µM
same,TGI,[40],> 10 µM
same,TGI,[41],> 10 µM
same,TGI,[42],> 10 µM
same,TGI,[43],> 10 µM
same,TGI,[44],> 10 µM
same,TGI,[45],> 10 µM
same,TGI,[46],> 10 µM
same,TGI,[47],7.53 µM
same,TGI,[48],> 10 µM
same,TGI,[49],> 10 µM
same,TGI,[50],> 10 µM
same,TGI,[51],> 10 µM
same,TGI,[52],> 10 µM
same,TGI,[53],9.76 µM
same,TGI,[54],> 10 µM
same,TGI,[55],> 10 µM
same,TGI,[56],> 10 µM
same,TGI,[57],> 10 µM
O=C1CCC2CCC1C2 (centres undefined),TGI,[1],> 100 µM
same,TGI,[2],> 100 µM
same,TGI,[58],> 100 µM
same,TGI,[3],> 100 µM
same,TGI,[4],> 100 µM
same,TGI,[5],> 100 µM
same,TGI,[6],> 100 µM
same,TGI,[7],> 100 µM
same,TGI,[8],> 100 µM
same,TGI,[9],> 100 µM
same,TGI,[10],> 100 µM
same,TGI,[11],> 100 µM
same,TGI,[12],> 100 µM
same,TGI,[13],> 100 µM
same,TGI,[15],> 100 µM
same,TGI,[16],> 100 µM
same,TGI,[18],> 100 µM
same,TGI,[19],> 100 µM
same,TGI,[20],> 100 µM
same,TGI,[21],> 100 µM
same,TGI,[22],> 100 µM
same,TGI,[23],> 100 µM
same,TGI,[24],> 100 µM
same,TGI,[25],> 100 µM
same,TGI,[27],> 100 µM
same,TGI,[28],> 100 µM
same,TGI,[29],> 100 µM
same,TGI,[30],> 100 µM
same,TGI,[31],> 100 µM
same,TGI,[32],> 100 µM
same,TGI,[33],> 100 µM
same,TGI,[34],> 100 µM
same,TGI,[35],> 100 µM
same,TGI,[36],> 100 µM
same,TGI,[37],> 100 µM
same,TGI,[39],> 100 µM
same,TGI,[41],> 100 µM
same,TGI,[42],> 100 µM
same,TGI,[43],> 100 µM
same,TGI,[44],> 100 µM
same,TGI,[46],> 100 µM
same,TGI,[47],> 100 µM
same,TGI,[48],> 100 µM
same,TGI,[49],> 100 µM
same,TGI,[50],> 100 µM
same,TGI,[51],> 100 µM
same,TGI,[52],> 100 µM
same,TGI,[53],> 100 µM
same,TGI,[54],> 100 µM
same,TGI,[55],> 100 µM
same,TGI,[56],> 100 µM
same,TGI,[57],> 100 µM
Cn1c(Nc2ccccc2)c(C=Nc2ccccc2)c(=O)n(C)c1=O,TGI,[1],> 100 µM
same,TGI,[2],> 100 µM
same,TGI,[58],> 100 µM
same,TGI,[3],> 100 µM
same,TGI,[4],> 100 µM
same,TGI,[6],> 100 µM
same,TGI,[7],> 100 µM
same,TGI,[8],> 100 µM
same,TGI,[9],> 100 µM
same,TGI,[10],> 100 µM
same,TGI,[11],> 100 µM
same,TGI,[12],79.7 µM
same,TGI,[16],> 100 µM
same,TGI,[17],> 100 µM
same,TGI,[18],> 100 µM
same,TGI,[19],> 100 µM
same,TGI,[20],> 100 µM
same,TGI,[22],> 100 µM
same,TGI,[23],> 100 µM
same,TGI,[24],> 100 µM
same,TGI,[26],> 100 µM
same,TGI,[27],> 100 µM
same,TGI,[29],> 100 µM
same,TGI,[30],> 100 µM
same,TGI,[33],> 100 µM
same,TGI,[34],> 100 µM
same,TGI,[35],> 100 µM
same,TGI,[36],> 100 µM
same,TGI,[37],> 100 µM
same,TGI,[39],> 100 µM
same,TGI,[40],> 100 µM
same,TGI,[43],> 100 µM
same,TGI,[46],> 100 µM
same,TGI,[47],> 100 µM
same,TGI,[48],> 100 µM
same,TGI,[49],> 100 µM
same,TGI,[50],> 100 µM
same,TGI,[51],> 100 µM
same,TGI,[59],> 100 µM
same,TGI,[52],> 100 µM
same,TGI,[53],> 100 µM
same,TGI,[54],> 100 µM
same,TGI,[55],> 100 µM
same,TGI,[56],> 100 µM
